# According to ChEMBL document CHEMBL1126518, “EPSP synthase inhibitor design II. The importance of the 3-phosphate group for ligand binding at the shikimate-3-phosphate site & the identification of 3-malonate ethers as novel 3-phosphate mimics” (Bioorg Med Chem Lett, 1993):
# T1: 3-phosphoshikimate 1-carboxyvinyltransferase (Escherichia coli K-12, UniProt P0A6D3)
# T1 sequence (P0A6D3 whole entry): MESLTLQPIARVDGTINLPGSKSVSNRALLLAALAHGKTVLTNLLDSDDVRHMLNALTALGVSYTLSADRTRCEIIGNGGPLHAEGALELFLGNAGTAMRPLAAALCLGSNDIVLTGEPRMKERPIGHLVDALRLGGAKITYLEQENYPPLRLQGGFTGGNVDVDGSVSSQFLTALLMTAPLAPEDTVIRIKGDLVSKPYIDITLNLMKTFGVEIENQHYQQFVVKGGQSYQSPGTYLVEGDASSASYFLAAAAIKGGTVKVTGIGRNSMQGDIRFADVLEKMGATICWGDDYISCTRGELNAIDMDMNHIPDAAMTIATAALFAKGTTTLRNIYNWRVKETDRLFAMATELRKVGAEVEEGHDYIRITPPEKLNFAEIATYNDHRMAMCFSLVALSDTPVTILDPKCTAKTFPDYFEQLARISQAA
# T2: 3-phosphoshikimate 1-carboxyvinyltransferase (Escherichia coli K-12) (UniProt P0A6D3)
# T2 sequence (whole entry): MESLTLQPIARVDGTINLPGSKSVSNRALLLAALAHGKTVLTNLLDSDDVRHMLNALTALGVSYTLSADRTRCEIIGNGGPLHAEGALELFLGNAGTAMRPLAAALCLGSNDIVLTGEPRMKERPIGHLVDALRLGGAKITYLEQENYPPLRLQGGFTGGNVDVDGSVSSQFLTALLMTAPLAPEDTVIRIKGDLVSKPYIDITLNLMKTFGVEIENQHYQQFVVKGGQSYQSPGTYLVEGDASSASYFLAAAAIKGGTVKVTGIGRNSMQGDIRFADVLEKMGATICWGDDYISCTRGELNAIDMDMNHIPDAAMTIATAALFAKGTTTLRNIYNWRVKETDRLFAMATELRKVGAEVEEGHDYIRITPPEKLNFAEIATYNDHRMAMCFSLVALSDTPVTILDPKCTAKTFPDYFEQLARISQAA
# Biological target: T1, 3-phosphoshikimate 1-carboxyvinyltransferase
# Assay: Inhibition of Escherichia coli EPSP(5-enolpyruvyl-shikimate-3-phosphate) Synthase
row,Molecule,IC50
1,O=C(O)C1=CC(OCP(=O)(O)O)CCC1 (stereo not drawn),> 90 mM
2,O=C(O)C1=CC(C(C(=O)O)C(=O)O)CCC1 (stereo not drawn),> 90 mM
3,O=C(O)C1=CC(CP(=O)(O)O)CCC1 (stereo not drawn),> 90 mM
4,O=C(O)C1=C/C(=C\P(=O)(O)O)CCC1,> 90 mM
5,O=C(O)C1=C/C(=C/P(=O)(O)O)CCC1,> 90 mM
6,O=C(O)CO[C@@H]1CC(C(=O)O)=C[C@@H](OP(=O)(O)O)[C@H]1O,0.1 mM

# Now from value to molecule:
row,IC50,Molecule
1,> 90 mM,C=C(O[C@@H]1CC(C(=O)O)=C[C@@H](O)[C@H]1O)C(=O)O
2,15 mM,O=C(O)C1=CC(OC(C(=O)O)C(=O)O)CCC1 (stereo not drawn)
3,> 90 mM,O=C(O)CO[C@@H]1CC(C(=O)O)=C[C@@H](O)[C@H]1O
4,> 90 mM,O=C(CP(=O)(O)O)O[C@@H]1CC(C(=O)O)=C[C@@H](O)[C@H]1O
5,7.5 mM,O=C(O)C1=CC(OP(=O)(O)O)CCC1 (stereo not drawn)

# Biological target: T2, 3-phosphoshikimate 1-carboxyvinyltransferase (Escherichia coli K-12)
# Assay: (§1) Enzyme Kinetic activity was calculated against Escherichia coli EPSP(5-enolpyruvyl-shikimate-3-phosphate) Synthase
row,k cat,Molecule
1,0.2 s⁻¹,C=C(O[C@@H]1CC(C(=O)O)=C[C@@H](O)[C@H]1O)C(=O)O

# Substrate: C=C(O[C@@H]1CC(C(=O)O)=C[C@@H](O)[C@H]1O)C(=O)O
# Assay: as §1
row,Molecule,Km
1,"3-phosphoshikimate 1-carboxyvinyltransferase (Escherichia coli K-12), P0A6D3 (protein) MESLTLQPIARVDGTINLPGSKSVSNRALLLAALAHGKTVLTNLLDSDDVRHMLNALTALGVSYTLSADRTRCEIIGNGGPLHAEGALELFLGNAGTAMRPLAAALCLGSNDIVLTGEPRMKERPIGHLVDALRLGGAKITYLEQENYPPLRLQGGFTGGNVDVDGSVSSQFLTALLMTAPLAPEDTVIRIKGDLVSKPYIDITLNLMKTFGVEIENQHYQQFVVKGGQSYQSPGTYLVEGDASSASYFLAAAAIKGGTVKVTGIGRNSMQGDIRFADVLEKMGATICWGDDYISCTRGELNAIDMDMNHIPDAAMTIATAALFAKGTTTLRNIYNWRVKETDRLFAMATELRKVGAEVEEGHDYIRITPPEKLNFAEIATYNDHRMAMCFSLVALSDTPVTILDPKCTAKTFPDYFEQLARISQAA",24 mM
